One series deals with T1, human DGAT1 (Homo sapiens, UniProt O75907).
T1 construct: FLAG (N); made in house; host or cells: SF9 insect cells (pFastBac baculovirus); total cell membranes
T1 sequence (O75907 1-488): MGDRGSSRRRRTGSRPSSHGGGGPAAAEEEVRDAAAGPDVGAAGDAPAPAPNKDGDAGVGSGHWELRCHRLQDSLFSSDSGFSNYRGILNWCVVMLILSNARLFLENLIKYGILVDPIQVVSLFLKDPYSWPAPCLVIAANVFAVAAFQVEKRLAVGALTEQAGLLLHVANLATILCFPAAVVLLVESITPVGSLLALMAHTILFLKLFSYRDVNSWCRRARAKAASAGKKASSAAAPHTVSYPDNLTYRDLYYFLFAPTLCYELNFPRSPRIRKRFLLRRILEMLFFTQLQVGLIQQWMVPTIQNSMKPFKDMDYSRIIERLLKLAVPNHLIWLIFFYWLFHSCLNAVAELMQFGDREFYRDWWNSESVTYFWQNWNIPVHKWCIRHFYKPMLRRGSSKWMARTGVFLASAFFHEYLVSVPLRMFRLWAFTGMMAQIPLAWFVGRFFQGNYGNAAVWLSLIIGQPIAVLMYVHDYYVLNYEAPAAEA
Nature of the series: Inhibition of DGAT1 activity, FlashPlate assay with DGAT1 membrane preparations and substrate micelles. The series is classed as biochemical. The note with it: pIC50 = -logIC50, IC50 values expressed in M. The method in brief: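 FLAG-tagged human DGAT1 membranes (expressed in Sf9 cells) were incubated 120 min at 37° C. in 50 mM Tris-HCl pH 7.4 with 150 mM MgCl2, 1 mM EDTA, 0.2% BSA, 50 μM DAG micelles (PC/PS) and 8.4 μM [^3H]-oleoylCoA. The reaction was stopped with N-ethylmaleimide and read as FlashPlate radioluminescence. Responses were normalized to enzyme/no-enzyme controls to fit dose-response curves.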

From patent US8981094B2, “Piperidine/piperazine derivatives” (Janssen Pharmaceutica N.V., priority 2007, dated 2015) come the findings set out here.

For the compound `COCCOCC(=O)Nc1ccc(N2CCN(C(=O)Nc3c(Cl)cccc3Cl)CC2)cc1` [Compound 45], the melting point is 178.7 °C. In addition, at human DGAT1, the IC50 is 2340 nM.
In turn, `O=C(CCCc1ccccc1)Nc1ccc(N2CCN(C(=O)Nc3c(Cl)cc(Br)c4c3CCO4)CC2)cc1` [Compound 46] came in with a melting point of 223 °C. This compound gave an IC50 at human DGAT1 of 331 nM.
Taken in the same sequence, the figures for `O=C(Nc1ccc(N2CCN(C(=O)Nc3c(Cl)cccc3Cl)CC2)cc1)C(O)CCc1ccccc1` (stereo not shown) [Compound 48] were 253.4 °C and 148 nM.
For `O=C(CCCc1ccccc1)Nc1ccc(N2CCN(C(=O)Nc3c(F)cc(Br)cc3F)CC2)cc1` [Compound 49], in that order: 207.9 °C and 120 nM.
For `CCOC(=O)CC(=O)Nc1ccc(N2CCN(C(=O)Nc3c(Cl)cccc3Cl)CC2)cc1` [Compound 50], in that order: 219.9 °C and 95.5 nM.
For the compound `C=CCN(CC(=O)Nc1ccc(N2CCN(C(=O)Nc3c(Cl)cccc3Cl)CC2)cc1)Cc1ccc(F)cc1` [Compound 51], the melting point is 177.8 °C. The IC50 against human DGAT1 was 18.2 nM.
For `CC(NCCCN(C)C)c1cc(Cl)c(NC(=O)N2CCN(c3ccc(NC(=O)CCCc4ccccc4)cc3)CC2)c(Cl)c1` (stereo not shown) [Compound 54], in that order: 125.4 °C and 23.4 nM.
For `CC(c1cc(Cl)c(NC(=O)N2CCN(c3ccc(NC(=O)CCCc4ccccc4)cc3)CC2)c(Cl)c1)N1CCCCC1` (stereo not shown) [Compound 56], in that order: 218 °C and 16.2 nM.
For `O=C(CCCc1ccccc1)Nc1ccc(N2CCN(C(=O)Nc3c(Cl)cccc3Cl)CC2)cc1` [Compound 58], in that order: 114 to 124 °C and 5.37 nM.
In turn, `O=C(CCCc1ccccc1)Nc1ccc(N2CCN(C(=O)Nc3c(Cl)cc(Cl)cc3Cl)CC2)cc1` [Compound 59] registered a melting point of 234.9 °C. The compound also had an IC50 at human DGAT1 of 12.9 nM.
Taken in the same sequence, the figures for `Cc1cccc(Cl)c1NC(=O)N1CCN(c2ccc(NC(=O)CCCc3ccccc3)cc2)CC1` [Compound 60] were 240.7 °C and 12.6 nM.
`Cc1cc(Br)cc(C)c1NC(=O)N1CCN(c2ccc(NC(=O)CCCc3ccccc3)cc2)CC1` [Compound 61] showed a melting point of 241.7 °C. For the same compound, 38 nM corresponded to half-maximal inhibition against human DGAT1 (IC50).
For `O=C(CCCc1ccccc1)Nc1ccc(N2CCN(C(=O)Nc3c(Cl)cccc3C(F)(F)F)CC2)cc1` [Compound 62], in that order: 254 °C and 16.2 nM.
Taken in the same sequence, the figures for `O=C(CCCc1ccccc1)Nc1ccc(N2CCN(C(=O)Nc3c(F)cc(Br)cc3Br)CC2)cc1` [Compound 63] were 218.6 °C and 30.9 nM.
For `Cc1cc(C)c(NC(=O)N2CCN(c3ccc(NC(=O)CCCc4ccccc4)cc3)CC2)c(Cl)c1` [Compound 64], in that order: 210.6 °C and 7.08 nM.
`Cc1ccc(NC(=O)N2CCN(c3ccc(NC(=O)CCCc4ccccc4)cc3)CC2)c(C)c1` [Compound 66]: the melting point was determined as 181.7 °C. On human DGAT1, this compound had a half-inhibitory concentration (IC50) of 26.9 nM.
Taken in the same sequence, the figures for `O=C(CCCc1ccccc1)Nc1ccc(N2CCN(C(=O)Nc3c(F)cccc3F)CC2)cc1` [Compound 67] were 187 °C and 60.3 nM.
Compound `Cc1cc(C)c(NC(=O)N2CCN(c3ccc(NC(=O)CCCc4ccccc4)cc3)CC2)c(C)c1` [Compound 68] gave a melting point of 223 °C. This compound also had an IC50 on human DGAT1 of 12.3 nM.
In the case of `COc1ccccc1CNC(=O)N1CCN(c2ccc(NC(=O)CCCc3ccccc3)cc2)CC1` [Compound 71], the melting point came out at 183.1 °C. The same compound gave an IC50 on human DGAT1 of 1070 nM.
For `O=C(CCCc1ccccc1)Nc1ccc(N2CCN(C(=O)Nc3ccc(F)cc3F)CC2)cc1` [Compound 73], in that order: 141.2 °C and 457 nM.
Taken in the same sequence, the figures for `CCCc1ccccc1NC(=O)N1CCN(c2ccc(NC(=O)CCCc3ccccc3)cc2)CC1` [Compound 77] were 200.2 °C and 1660 nM.
Taken in the same sequence, the figures for `O=C(CCCc1ccccc1)Nc1ccc(N2CCN(C(=O)Nc3ccccc3I)CC2)cc1` [Compound 78] were 153.3 °C and 126 nM.
Compound `CSc1ccccc1NC(=O)N1CCN(c2ccc(NC(=O)CCCc3ccccc3)cc2)CC1` [Compound 79] gave a melting point of 127.1 °C. Moreover, at human DGAT1, the IC50 is 1450 nM.
Taken in the same sequence, the figures for `O=C(CCCc1ccccc1)Nc1ccc(N2CCN(C(=O)Nc3cc(C(F)(F)F)ccc3Cl)CC2)cc1` [Compound 81] were 170.3 °C and 3310 nM.
For `O=C(CCCc1ccccc1)Nc1ccc(N2CCN(C(=O)Nc3c(F)cc(F)cc3F)CC2)cc1` [Compound 82], in that order: 173.6 °C and 75.9 nM.
Taken in the same sequence, the figures for `O=C(CCCc1ccccc1)Nc1ccc(N2CCN(C(=O)Nc3ccccc3OC(F)(F)F)CC2)cc1` [Compound 84] were 162.2 °C and 1480 nM.
The compound `CC(C)(C)CC(C)(C)NC(=O)N1CCN(c2ccc(NC(=O)CCCc3ccccc3)cc2)CC1` [Compound 85] returned a melting point of 202.3 °C. At human DGAT1, this compound showed a half-maximal inhibitory concentration (IC50) of 1950 nM.
For `CCC(C)c1ccccc1NC(=O)N1CCN(c2ccc(NC(=O)CCCc3ccccc3)cc2)CC1` (stereo not shown) [Compound 86], in that order: 207.8 °C and 1700 nM.
For `O=C(CCCc1ccccc1)Nc1ccc(N2CCN(C(=O)Nc3c(F)c(F)c(F)c(F)c3F)CC2)cc1` [Compound 87], in that order: 181.2 °C and 3310 nM.
Consider `O=C(CCCc1ccccc1)Nc1ccc(N2CCN(C(=O)Nc3c(Cl)c(Cl)cc(Cl)c3Cl)CC2)cc1` [Compound 88], for which the melting point turned out to be 225.1 °C. Besides, the IC50 against human DGAT1 is 479 nM.
Taken in the same sequence, the figures for `CC(C)(C)c1ccccc1NC(=O)N1CCN(c2ccc(NC(=O)CCCc3ccccc3)cc2)CC1` [Compound 89] were 227.2 °C and 2190 nM.
For `CC(C)c1ccccc1NC(=O)N1CCN(c2ccc(NC(=O)CCCc3ccccc3)cc2)CC1` [Compound 90], in that order: 214.2 °C and 589 nM.
The compound `CCOC(=O)c1ccccc1NC(=O)N1CCN(c2ccc(NC(=O)CCCc3ccccc3)cc2)CC1` [Compound 91] came in with a melting point of 194.7 °C. For the same compound, at human DGAT1, the IC50 is 5500 nM.
In the case of `COC(=O)c1ccccc1NC(=O)N1CCN(c2ccc(NC(=O)CCCc3ccccc3)cc2)CC1` [Compound 92], the melting point stood at 165.4 °C. Moreover, the IC50 on human DGAT1 was 7410 nM.
For `CCc1ccccc1NC(=O)N1CCN(c2ccc(NC(=O)CCCc3ccccc3)cc2)CC1` [Compound 93], in that order: 189 °C and 240 nM.
Taken in the same sequence, the figures for `O=C(CCCc1ccccc1)Nc1ccc(N2CCN(C(=O)Nc3ccccc3F)CC2)cc1` [Compound 94] were 177.3 °C and 295 nM.
For `O=C(CCCc1ccccc1)Nc1ccc(N2CCN(C(=O)Nc3ccccc3Br)CC2)cc1` [Compound 95], in that order: 147.4 °C and 126 nM.
Compound `Cc1ccccc1NC(=O)N1CCN(c2ccc(NC(=O)CCCc3ccccc3)cc2)CC1` [Compound 96] returned a melting point of 164.7 °C. Besides, the IC50 against human DGAT1 is 75.9 nM.
